# Measured values reported in US12692302B2, “Uses of IL-13 antagonists for treating atopic dermatitis” (Genentech, Inc., priority 2016, dated 2026).
# Like-named read-outs stand apart in the source and are kept apart here.
# Tests used:
# [1] = system: adult patients with persistent moderate to severe AD inadequately controlled by TCS; experiment: Clinical Study II (phase II, open label, lebrikizumab monotherapy vs TCS alone): efficacy; format: in vivo, human; conditions: for % change in BSA / % change in EASI / % change in SCORAD / EASI-75 (percent of patients) / EASI-90 (percent of patients) / IGA 0/1 (percent of patients): lebrikizumab 125 mg SC Q4W monotherapy (n = 28) or TCS cream alone BID (n = 27); for % change in pruritus VAS: patients with baseline pruritus VAS ≥3, lebrikizumab 125 mg SC Q4W monotherapy or TCS cream alone BID
# Description: Clinical Study II was a Phase II, randomized, open label study to evaluate the safety and efficacy of lebrikizumab monotherapy in adult patients (18-75 years of age) with persistent moderate to severe AD, who were inadequately controlled by TCS.
# The inclusion criteria included the following: age 18 to 75 years; AD diagnosed by the Hanifin/Rajka criteria and that had been present for at least 1 year at screening; moderate to severe AD as graded by the Rajka/Langeland criteria at screening; history of inadequate response to a 1 month (within the 3 months prior to the screening visit) treatment regimen of at least daily TCS and regular emollient for treatment of AD; EASI score 14 at screening and end of the run-in period (Visit 3), IGA score 3 (5-point scale) at screening and end of the run-in period (Visit 3); AD involvement of 10% body surface area (BSA) at screening; and Pruritus VAS score (measured as part of the SCORAD) of 3 at screening; adherence to the protocol-specified 2-week run-in period TCS regimen (at least 10 out of 14 days) at the time of entry into the treatment period (Day 1).
# Run-in Period. Following screening, eligible patients entered a 2-week run-in period (Days −14 to −1). After the run-in period, patients stopped use of their pre-study TCS (and other AD medications) and began a protocol-specified topical therapy regimen as outlined below. On the first day of the run-in period (Day −14) patients received TCS for use throughout the run-in period. Specifically, patients received triamcinolone acetonide 0.1% cream for use on the body and hydrocortisone 2.5% cream for use on the face and intertriginous areas. Patients were instructed to apply emollient to all xerotic skin surfaces at least once daily and to apply cream to active skin lesions twice per day and not to apply cream to unaffected areas.
# Treatment Period (Weeks 1-12). […] A total of approximately 50 patients were randomized (1:1) to one of the following two treatment groups (see FIG. 10): Group 1: 125 mg of lebrikizumab administered by subcutaneous (SC) injection every 4 weeks (Q4W) for a total of 3 doses; and Group 2: TCS cream alone.
# Efficacy Outcome Measures. The exploratory efficacy outcome measures of lebrikizumab monotherapy compared to TCS alone for this study were as follows, in order: (i) percent of patients with a 50% or 75% (EAST 50/75) reduction from baseline EASI at Week 12 (EASI-50 and EASI-75 were defined as a 50% and 75% reduction, respectively, in EASI score at Week 12 compared to baseline); (ii) percent and absolute change from baseline in EASI score at Week 12; (iii) percent of patients achieving an IGA score of 0 or 1 at Week 12; (iv) percent of patients with a ≥2 point reduction from baseline in IGA at Week 12; (v) absolute change from baseline in IGA at Week 12; (vi) percent of patients achieving an IGSA score of 0 or 1 at Week 12; (vii) percent of patients with a ≥2 point reduction from baseline in IGSA at Week 12; (viii) absolute change from baseline in IGSA at Week 12; (ix) percent and absolute change from baseline in SCORAD at Week 12; (x) percent of patients with a 50% or 75% reduction (SCORAD 50/75) from baseline in SCORAD score at Week 12; (xi) percent change from baseline in total percent body surface area (BSA) affected at Week 12; (xii) absolute- and percent-change from baseline in pruritus as measured by the Pruritus VAS (assessed as part of the SCORAD) at Week 12; (xiii) number of disease flares from baseline to Week 12; and (xiv) percent of patients who receive non-protocol specified TCS before Week 12.
# [2] = system: moderate-to-severe asthmatic patients not controlled on inhaled corticosteroids; conditions: all doses (37.5, 125, 250 mg Q4W), cited from earlier work
# [3] = Clinical Study I: serum lebrikizumab pharmacokinetics; format: in vivo, human; conditions: AD patients; for Mean Cmax, wk1 / Mean Cmin wk12 / Mean Cmin, wk4 / Mean Cmin, wk8: serum
# Method: Pharmacokinetic parameters were also assessed as follows. Serum samples for analysis of lebrikizumab pharmacokinetics were obtained at Day 1 (pre-dose) and at Weeks 1, 4 (pre-dose), 6, 8 (pre-dose), 12, 16, and 20 for all dosing regimens. Serum lebrikizumab concentrations were summarized by treatment and visit using descriptive statistics for the patients that received one of the lebrikizumab treatment regimens.
substance,measurement,setting,value
"lebrikizumab: monoclonal humanized anti-IL-13 IgG4 antibody; heavy chain SEQ ID NO: 11, light chain SEQ ID NO: 12; formulated at 125 mg/mL in prefilled syringe",% change in BSA,[1]; Baseline to Week 12,−43.2%
same,% change in EASI,[1]; Baseline to Week 12,−44.0%
same,% change in SCORAD,[1]; Baseline to Week 12,−26.6%
same,EASI-75 (percent of patients),[1]; Baseline to Week 12,39.3%
same,EASI-90 (percent of patients),[1]; Baseline to Week 12,14.3%
same,IGA 0/1 (percent of patients),[1]; Baseline to Week 12,7.1%
same,% change in pruritus VAS,[1]; Baseline to Week 12,−14.5%
same,% change in BSA,[1]; Day −14 to Week 12,−52.2%
same,% change in EASI,[1]; Day −14 to Week 12,−53.8%
same,% change in SCORAD,[1]; Day −14 to Week 12,−40.5%
same,EASI-75 (percent of patients),[1]; Day −14 to Week 12,42.9%
same,EASI-90 (percent of patients),[1]; Day −14 to Week 12,14.3%
same,IGA 0/1 (percent of patients),[1]; Day −14 to Week 12,7.1%
same,% change in pruritus VAS,[1]; Day −14 to Week 12,−39.6%
same,reduction in the rate of asthma exacerbations,[2]; biomarker-high (serum periostin-high) patients,60%
same,reduction in the rate of asthma exacerbations,[2]; biomarker-low (serum periostin-low) patients,5%
same,t½ (elimination half-life),[3]; 125 mg Q4W subcutaneous,20.9 days
same,t½ (elimination half-life),[3]; 125 mg SD subcutaneous,18.5 days
same,t½ (elimination half-life),[3]; 250 mg SD subcutaneous,22.2 days
same,half-life,[3]; across the dosing regimens,19 to 22 days
same,"Mean Cmax, wk1",[3]; 125 mg Q4W subcutaneous,16100 ng/mL
same,Mean Cmin wk12,[3]; 125 mg Q4W subcutaneous,14400 ng/mL
same,"Mean Cmin, wk4",[3]; 125 mg Q4W subcutaneous,9150 ng/mL
same,"Mean Cmin, wk8",[3]; 125 mg Q4W subcutaneous,13600 ng/mL
same,"Mean Cmax, wk1",[3]; 125 mg SD subcutaneous,17000 ng/mL
same,Mean Cmin wk12,[3]; 125 mg SD subcutaneous,2280 ng/mL
same,"Mean Cmin, wk4",[3]; 125 mg SD subcutaneous,10200 ng/mL
same,"Mean Cmin, wk8",[3]; 125 mg SD subcutaneous,4590 ng/mL
same,"Mean Cmax, wk1",[3]; 250 mg SD subcutaneous,35600 ng/mL
same,Mean Cmin wk12,[3]; 250 mg SD subcutaneous,3770 ng/mL
same,"Mean Cmin, wk4",[3]; 250 mg SD subcutaneous,21400 ng/mL
same,"Mean Cmin, wk8",[3]; 250 mg SD subcutaneous,9530 ng/mL
